Assay results published in BindingDB's records for patent US20240116873 (JIANGSU CHIATAI QINGJIANG PHARMACEUTICAL CO., LTD., 2024).

Legend:
[1] = biological target: T1, Solute carrier family 22 member 12 (Homo sapiens, UniProt Q96S37); experiment: Inhibitory Assay
T1 sequence (Q96S37 whole entry): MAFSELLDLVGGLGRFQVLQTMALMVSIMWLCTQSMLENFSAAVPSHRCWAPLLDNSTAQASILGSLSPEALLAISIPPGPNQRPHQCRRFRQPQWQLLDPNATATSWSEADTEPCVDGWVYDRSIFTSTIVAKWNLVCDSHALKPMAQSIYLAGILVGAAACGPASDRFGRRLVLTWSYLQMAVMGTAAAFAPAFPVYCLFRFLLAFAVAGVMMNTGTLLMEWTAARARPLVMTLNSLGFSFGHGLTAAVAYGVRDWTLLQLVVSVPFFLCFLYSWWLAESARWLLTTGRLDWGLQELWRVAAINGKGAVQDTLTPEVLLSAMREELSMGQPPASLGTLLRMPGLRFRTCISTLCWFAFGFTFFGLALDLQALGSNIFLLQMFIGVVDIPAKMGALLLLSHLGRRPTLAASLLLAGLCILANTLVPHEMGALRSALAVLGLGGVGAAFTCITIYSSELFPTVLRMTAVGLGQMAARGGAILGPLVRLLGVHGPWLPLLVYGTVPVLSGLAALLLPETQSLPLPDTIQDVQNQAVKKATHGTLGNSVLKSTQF

[2] = biological target: T2, Solute carrier family 22 member 11 (Homo sapiens, UniProt Q9NSA0); experiment: Inhibitory Assay
T2 sequence (Q9NSA0 whole entry): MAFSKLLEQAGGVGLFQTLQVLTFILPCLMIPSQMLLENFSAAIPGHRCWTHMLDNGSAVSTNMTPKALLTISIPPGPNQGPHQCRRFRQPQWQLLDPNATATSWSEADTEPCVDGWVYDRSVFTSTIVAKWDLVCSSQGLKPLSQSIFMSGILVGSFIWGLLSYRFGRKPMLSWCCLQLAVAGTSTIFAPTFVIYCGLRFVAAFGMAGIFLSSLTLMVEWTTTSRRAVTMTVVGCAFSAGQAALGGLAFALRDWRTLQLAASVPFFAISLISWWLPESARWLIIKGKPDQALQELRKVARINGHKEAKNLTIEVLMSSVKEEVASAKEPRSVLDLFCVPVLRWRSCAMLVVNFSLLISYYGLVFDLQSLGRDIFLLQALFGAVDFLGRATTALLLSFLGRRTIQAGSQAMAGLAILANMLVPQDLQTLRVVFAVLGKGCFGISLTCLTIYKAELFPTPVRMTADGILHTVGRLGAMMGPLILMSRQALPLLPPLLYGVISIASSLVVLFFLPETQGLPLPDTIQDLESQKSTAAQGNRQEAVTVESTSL

Compound	IC50 [1] [µM]	IC50 [2] [µM]
Cc1ccc2nccc(SC(C)(C)C(=O)NS(C)(=O)=O)c2c1 [US20240116873, Compound A]	3.15	
CC(C)(Sc1ccnc2ccc(C(F)(F)F)cc12)C(=O)NS(C)(=O)=O [US20240116873, Compound D]		83.8

Further lines, results first:

IC50 [1] [µM]	IC50 [2] [µM]	Compound
3.42		CC(C)(Sc1ccnc2ccc(Br)cc12)C(=O)NS(=O)(=O)c1cccs1 [US20240116873, Compound E]
2.79		CC(C)(Sc1ccnc2ccc(F)cc12)C(=O)NS(C)(=O)=O [US20240116873, Compound B]
1.18		CCS(=O)(=O)NC(=O)C(C)(C)Sc1ccnc2ccc(Br)cc12 [US20240116873, Compound C]
